Here are results for 16 compounds from ChEMBL document CHEMBL1141233, “3-(5-Chloro-2,4-dihydroxyphenyl)-pyrazole-4-carboxamides as inhibitors of the Hsp90 molecular chaperone” (Bioorg Med Chem Lett, 2005).

Molecules are shown by their SMILES.

The first assay addresses Heat shock protein HSP90 (Homo sapiens, UniProt P07900+P08238). Briefly: Binding affinity to Hsp90 by fluorescent polarization assay. It is filed as protein assay.
Broadly, the IC50 is the concentration that gives 50% inhibition. Lower therefore signals higher potency. Consider `O=C(Nc1ccc(Cl)cc1)c1cn[nH]c1-c1cc(Cl)c(O)cc1O`, for which the IC50 is 6.9 µM.

In turn, `O=C(Nc1ccc(O)cc1)c1c[nH]nc1-c1cc(Cl)c(O)cc1O` registered an IC50 of 14.7 µM.

`O=C(NCc1ccc(F)cc1)c1cn[nH]c1-c1cc(Cl)c(O)cc1O` displayed an IC50 of 5.35 µM.

`O=C(NCc1ccccc1)c1cn[nH]c1-c1cc(Cl)c(O)cc1O`: the IC50 amounted to 12.8 µM.

`COc1ccc(NC(=O)c2c[nH]nc2-c2cc(Cl)c(O)cc2O)cc1` had an IC50 of 6 µM.

Take `COc1cccc(CNC(=O)c2c[nH]nc2-c2cc(Cl)c(O)cc2O)c1`: the IC50 was found to be 10.7 µM.

Compound `O=C(Nc1ccccn1)c1cn[nH]c1-c1cc(Cl)c(O)cc1O` returned an IC50 above 50 µM.

`COc1ccc(N(C)C(=O)c2c[nH]nc2-c2cc(Cl)c(O)cc2O)cc1` came in with an IC50 above 50 µM.

Turning to `CC(=O)Nc1ccc(NC(=O)c2c[nH]nc2-c2cc(Cl)c(O)cc2O)cc1`, the IC50 came out at 31.5 µM.

`O=C(NCc1ccco1)c1cn[nH]c1-c1cc(Cl)c(O)cc1O` returned an IC50 of 35.6 µM.

In turn, `O=C(Nc1ccccc1)c1cn[nH]c1-c1cc(Cl)c(O)cc1O` showed an IC50 of 7.1 µM.

Regarding `COc1ccc(CNC(=O)c2c[nH]nc2-c2cc(Cl)c(O)cc2O)cc1`, the IC50 is 6 µM. The IC50 values of the last two compounds are within 1.5-fold of each other.

The compound `COc1cccc(NC(=O)c2c[nH]nc2-c2cc(Cl)c(O)cc2O)c1` displayed an IC50 of 11.7 µM.

`O=C(NCc1cccc(C(F)(F)F)c1)c1cn[nH]c1-c1cc(Cl)c(O)cc1O` came in with an IC50 of 5.4 µM.

The test system of another assay is HCT-116. Description: Inhibition of cell proliferation in HCT116 human colon cancer cell line. It is filed as functional.
The GI50 is the concentration giving 50% growth inhibition. High values mean lower sensitivity of the cells, low ones greater sensitivity of the cells. Take `CC(=O)c1ccc(NC(=O)c2cn[nH]c2-c2cc(Cl)c(O)cc2O)cc1`: the GI50 came out at 11.6 µM.

In turn, `O=C(Nc1ccc(Cl)cc1)c1cn[nH]c1-c1cc(Cl)c(O)cc1O` showed a GI50 above 80 µM.

Compound `O=C(Nc1ccc(O)cc1)c1c[nH]nc1-c1cc(Cl)c(O)cc1O` yielded a GI50 above 80 µM.

`O=C(NCc1ccc(F)cc1)c1cn[nH]c1-c1cc(Cl)c(O)cc1O` registered a GI50 of 56.2 µM.

The compound `O=C(NCc1ccccc1)c1cn[nH]c1-c1cc(Cl)c(O)cc1O` registered a GI50 above 80 µM.

As for `COc1ccc(NC(=O)c2c[nH]nc2-c2cc(Cl)c(O)cc2O)cc1`, the GI50 was above 80 µM.

Compound `COc1cccc(CNC(=O)c2c[nH]nc2-c2cc(Cl)c(O)cc2O)c1` gave a GI50 above 80 µM.

`NS(=O)(=O)c1ccc(CNC(=O)c2cn[nH]c2-c2cc(Cl)c(O)cc2O)cc1` had a GI50 above 80 µM.

With `CC(=O)Nc1ccc(NC(=O)c2c[nH]nc2-c2cc(Cl)c(O)cc2O)cc1`, growth was halved (GI50) at 59.7 µM. In other words, the double-digit micromolar range.

For `COc1ccc(CNC(=O)c2c[nH]nc2-c2cc(Cl)c(O)cc2O)cc1`, the GI50 worked out at 60.7 µM.

As to `COc1cccc(NC(=O)c2c[nH]nc2-c2cc(Cl)c(O)cc2O)c1`, the GI50 was above 80 µM.

In turn, `O=C(NCc1cccc(C(F)(F)F)c1)c1cn[nH]c1-c1cc(Cl)c(O)cc1O` registered a GI50 of 45 µM. This lies in the double-digit micromolar range.
